# Reference: article PMC10286459 (Cell & Bioscience, 2023)
# Non-standard residues stand in square brackets, D forms with d. Residues, ends and D or L forms follow the SMILES beside them.
# Legend:
# MDA-MB-231 cells [1] = assay: Colony formation assay; details: MDA-MB-231, 200 cells/well, 20 µM, 14 days; versus M1-21mut
# full-length FOXM1 = molecular target: T1, full-length FOXM1 (Homo sapiens, UniProt Q08050); assay: Biotin-peptide Pulldown with Streptavidin Magnetic Beads; assay type: binding; details: biotin-labeled peptide, cell lysates (500 µg) with endogenous or exogenous FOXM1; Western Blotting
# T1 sequence (Q08050 703-763 limits assumed): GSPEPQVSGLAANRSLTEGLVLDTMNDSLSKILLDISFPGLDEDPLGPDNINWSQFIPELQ
# Method: SDS-PAGE gel electrophoresis and Coomassie brilliant blue staining were performed to measure peptide stability. […] Cells were collected at different post-treatment time points (0, 1, 2, 4, 8, 16, 24, 36, 48 h). […] D The docking of peptide P22 (106–126) to the FOXM1 C-terminus (PDB ID 6OSW) was created by Rosetta FlexPepDock and PyMOL. Left, the interface of peptide-protein interaction, the peptide was shown in cyan, and the C-terminus of FOXM1 was shown according to its electrostatic potential. Right, hydrogen bonds are formed by residues at the interface of peptide and protein interaction. […] Streptavidin magnetic beads were added to lysates to pull down the biotin-peptides/protein complexes. […] M1-21mut was used as the control.
# 4T1-Luc-GFP cells = assay: 4T1-Luc-GFP metastasis tracing in wild-type BALB/c mice; details: 15 or 30 mg/kg intraperitoneal every two days
# β-catenin = β-catenin levels in cytosol and nuclear protein samples; details: MDA-MB-231, 20 µM for 6 h; Western blotting
# MCF-10A cells = details: 0-50 µM, 72 h, trypan blue, Fig. S11
# [2] = molecular target: T2, interaction between FOXM1 and PLK1 (Homo sapiens, UniProt Q08050); assay: Co-IP in 231-Flag-FOXM1-Ind cells; assay type: cell-based; details: doxycycline 200 ng/mL 24 h, M1-21 10, 20 µM or TAT-106-126 20, 40, 80 µM for 6 h
# T2 construct: expressed in transfected cells; host or cells: MDA-MB-231 stably infected with pLVX-TetOne-Flag-FOXM1b lentivirus (231-Flag-FOXM1-Ind), doxycycline-induced
# T2 sequence (Q08050 1-748 isoform Q08050-2): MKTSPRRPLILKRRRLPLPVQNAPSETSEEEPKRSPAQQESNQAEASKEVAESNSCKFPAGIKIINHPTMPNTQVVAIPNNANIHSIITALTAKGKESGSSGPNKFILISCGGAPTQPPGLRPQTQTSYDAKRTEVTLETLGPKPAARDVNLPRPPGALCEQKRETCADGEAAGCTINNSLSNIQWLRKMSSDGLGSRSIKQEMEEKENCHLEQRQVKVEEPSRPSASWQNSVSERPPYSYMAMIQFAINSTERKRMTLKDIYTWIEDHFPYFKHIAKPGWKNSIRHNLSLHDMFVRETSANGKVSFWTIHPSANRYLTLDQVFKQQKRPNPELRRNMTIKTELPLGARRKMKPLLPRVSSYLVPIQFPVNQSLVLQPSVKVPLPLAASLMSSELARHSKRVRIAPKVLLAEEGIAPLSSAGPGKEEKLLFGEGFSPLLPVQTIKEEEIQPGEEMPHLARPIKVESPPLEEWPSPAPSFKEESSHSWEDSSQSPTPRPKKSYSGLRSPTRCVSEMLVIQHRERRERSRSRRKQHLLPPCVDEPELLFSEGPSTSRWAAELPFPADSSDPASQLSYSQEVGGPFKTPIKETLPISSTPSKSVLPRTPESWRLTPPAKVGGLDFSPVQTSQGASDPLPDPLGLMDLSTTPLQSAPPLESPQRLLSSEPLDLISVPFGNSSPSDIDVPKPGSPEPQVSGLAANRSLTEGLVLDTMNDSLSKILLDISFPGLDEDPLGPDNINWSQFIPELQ
# From the text: Number of repetitions = 3. […] Number of repetitions = 3. […] Number of repetitions = 3. […] GAPDH was used as a loading control.
# mouse erythrocytes = assay: Hemolysis assay; details: 800 µg/mL, mouse blood 10% (v/v) in normal saline, 37℃ for 3 h, absorbance 540 nm
# Method: One week later, the animals’ different organs were harvested and subjected to tissue sectioning and H&E staining. Photos were taken by inverted microscope (400×, Nikon TE2000). […] The mice’s diet and activity were observed continuously for 14 days. […] Water and PBS were used as hemolysis positive and negative controls, respectively. The absorbance of the samples was measured at 540 nm and used to calculate the Hemolysis rate % = [(OD Sample - OD Negative) / (OD Positive - OD Negative)] × 100%. E Immunogenicity analysis of M1-21. […] Blood samples were collected from mice at different time points (Week 2 to Week 8) and the absorption of anti-M1-21 antibody in serum (1:1000 dilution) was measured by ELISA. HRP-conjugated anti-mouse IgG was used as an ELISA secondary antibody.
# Hemolysis assays were performed with fresh mouse blood collected and dispersed in normal saline (NaCl 0.9%) at 10% (v/v). […] Sterile double distilled water and PBS were used as positive and negative controls, respectively. Immunogenicity of M1-21 was detected by ELISA in mice. […] Blood samples were collected from mice at different time points (Week 2 to Week 8). […] ELISA plates were washed twice with PBS and blocked with 3% bovine serum albumin for 2 h. […] Absorption was measured at 492 nm.
# [3] = test system: FOXM1-binding promoters (6xFOXM1 binding sequence-containing promoter, − 1.8 kb promoter of CDC25B); assay: Dual luciferase reporter, FOXM1-binding promoters; details: HEK-293T, cotransfection with pCMV-FOXM1; M1-21 5, 10, 20 µM for 24 h; n = 3
# MDA-MB-231 cells [4] = details: Biotin-M1-21 20 µM, 4 h, cytosol and nuclear protein samples, Western blotting
structure (smiles),measurement,setting,value
CC[C@@H](C)[C@@H](NC(=O)[C@@H](CC(C)C)NC(=O)[C@H](NC(=O)[C@@H](CO)NC(=O)[C@@H](CS)NC(=O)CNC(=O)CNC(=O)[C@@H](C)NC(=O)[C@H]1CCCN1C(=O)[C@H](NC(=O)[C@@H](CCC(N)=O)NC(=O)[C@H]1CCCN1C(=O)[C@H]1CCCN1C(=O)CNC(=O)[C@@H](CC(C)C)NC(=O)[C@@H](CCCNC(=N)N)NC(=O)[C@H]1CCCN1C(=O)[C@@H](CCC(N)=O)NC(=O)[C@H](NC(=O)[C@H](N)CCC(N)=O)[C@H](C)O)[C@H](C)O)[C@H](C)CC)C(=O)N[C@H](Cc1ccccc1)C(=O)N[C@H](CCCNC(=N)N)C(=O)N[C@H](CCCNC(=N)N)C(=O)N[C@H](CCCNC(=N)N)C(=O)N[C@H](CCC(N)=O)C(=O)N[C@H](CCCNC(=N)N)C(=O)N[C@H](CCCNC(=N)N)C(=O)N[C@H](CCCCN)C(=O)N[C@H](CCCCN)C(=O)N[C@H](CCCNC(=N)N)C(=O)NCC(=O)O [M1-21] (H-[dQ][dT][dQ][dP][dR][dL]G[dP][dP][dQ][dT][dP][dA]GG[dC][dS][dI][dL][dI][dF][dR][dR][dR][dQ][dR][dR][dK][dK][dR]G-OH; N-terminus and C-terminus assumed),colony formation,MDA-MB-231 cells [1],inhibitory effects
same,binding to full-length FOXM1 in Pulldown,full-length FOXM1,bound
same,survival time of the animals,"4T1-Luc-GFP cells; Mantel-Cox, log rank test",significantly prolonged
same,metastasis of 4T1-Luc-GFP cells (in vivo luciferase imaging),"4T1-Luc-GFP cells; n = 6 per group, Day 1, 7, 17, organs Day 21",prevented metastasis
same,β-catenin levels in cytoplasm and nucleus,β-catenin,elevated levels of β-catenin in the cytoplasm and declined levels of β-catenin in the nucleus
same,"inhibition of normal breast epithelial cells, in words",MCF-10A cells,did not inhibit
same,interaction between FOXM1 and PLK1 (Co-IP),[2],disrupted the interaction
same,hemolysis to erythrocytes,mouse erythrocytes,very mild hemolysis
same,FOXM1-mediated stimulation on FOXM1-binding promoters (luciferase),[3],abrogated FOXM1-mediated stimulation
same,distribution after entering cells,MDA-MB-231 cells [4],distributed in cytoplasm and nucleus
